Residue numbers refer to the chain shown, from its start.
Tests used:
[1] = target: T1, UL97 L397R (Human cytomegalovirus, UniProt Q68101, L397R); assay: UL97 autophosphorylation protein kinase assay, L397R; type: biochemical; conditions: L397R mutant
T1 construct: PCR reaction to generate the full length UL97; honey bee melittin secretion signal (N); expressed in transfected cells; host or cells: Sf21 insect cells infected with recombinant baculovirus
T1 sequence (Q68101 1-707 L397R): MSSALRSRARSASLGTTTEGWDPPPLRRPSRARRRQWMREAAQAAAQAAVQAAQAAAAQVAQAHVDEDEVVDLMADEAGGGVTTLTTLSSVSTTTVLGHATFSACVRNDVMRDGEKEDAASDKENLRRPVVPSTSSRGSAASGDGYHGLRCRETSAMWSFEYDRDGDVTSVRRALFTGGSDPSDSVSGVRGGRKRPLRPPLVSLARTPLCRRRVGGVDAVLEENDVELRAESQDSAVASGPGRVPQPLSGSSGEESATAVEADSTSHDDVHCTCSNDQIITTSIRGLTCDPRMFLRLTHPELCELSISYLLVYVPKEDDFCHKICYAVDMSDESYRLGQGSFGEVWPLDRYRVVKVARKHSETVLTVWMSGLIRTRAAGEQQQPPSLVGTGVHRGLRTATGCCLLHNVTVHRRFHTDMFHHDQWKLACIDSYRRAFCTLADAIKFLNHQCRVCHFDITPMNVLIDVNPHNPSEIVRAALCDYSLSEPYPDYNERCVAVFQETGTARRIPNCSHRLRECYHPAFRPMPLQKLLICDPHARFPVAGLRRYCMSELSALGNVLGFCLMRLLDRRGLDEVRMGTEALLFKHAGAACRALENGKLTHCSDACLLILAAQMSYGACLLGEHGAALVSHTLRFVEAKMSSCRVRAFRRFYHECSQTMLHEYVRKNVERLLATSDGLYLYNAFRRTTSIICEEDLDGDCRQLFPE
Description: (§1) Analysis of the autophosphorylation of wild type and mutant UL97 protein species was performed by a standard protein kinase assay as previously described (46). Briefly, purified protein was added to 2× protein kinase buffer (100 mM Tris HCl, pH9.0, 20 mM MgCl2, 10 μM ATP, 4 mM DTT, 2 M NaCl) and 370 KBq [γ^32P] ATP (Amersham), made up to 20 μl with SDW and incubated at 37°C. The reactions were terminated by the addition of 2× SDS sample buffer followed by boiling for 3 minutes. The amount of radiolabelled phosphate incorporated by autophosphorylation was analysed by SDS-PAGE and measured using the Biorad Mulitanalyst. The protein kinase assays were initially performed for 2 to 60 minutes to determine the maximum rate of phosphate incorporation, all assays were then performed at the maximum rate which equated to 5 minutes.
(§2) Enzyme kinetic analysis was performed on the purified wild type and mutant UL97 protein species as above using increasing concentrations of ATP (2 μM to 20 μM). The amount of incorporated radiolabelled phosphate was plotted against the concentration of ATP in a Lineweaver Burke plot to determine the Km for ATP for each UL97 species. […]

[2] = target: T2, UL97 A594T (Human cytomegalovirus, UniProt Q68101, A594T); assay: UL97 autophosphorylation protein kinase assay, A594T; type: biochemical
T2 construct: PCR reaction to generate the full length UL97; honey bee melittin secretion signal (N); made in house; host or cells: Sf21 insect cells, recombinant baculovirus (pMelBac C)
T2 sequence (Q68101 1-707 A594T): T1 sequence (Q68101 1-707 L397R) with R397L, A594T
Description: as §1, §2

[3] = system: HCMV; set-up: method as in PMID 12121906; conditions: HCMV replication in vitro; cited from earlier work
[4] = system: HCMV strains resistant to ganciclovir, foscarnet and cidofovir; set-up: method as in PMID 16962820; conditions: cited from earlier work
[5] = target: T3, wild type UL97 (Human cytomegalovirus, UniProt Q68101); assay: UL97 autophosphorylation protein kinase assay, wild type; type: biochemical
T3 construct: PCR reaction to generate the full length UL97; honey bee melittin secretion signal (N); made in house; host or cells: Sf21 insect cells, recombinant baculovirus (pMelBac C)
T3 sequence (Q68101 whole entry): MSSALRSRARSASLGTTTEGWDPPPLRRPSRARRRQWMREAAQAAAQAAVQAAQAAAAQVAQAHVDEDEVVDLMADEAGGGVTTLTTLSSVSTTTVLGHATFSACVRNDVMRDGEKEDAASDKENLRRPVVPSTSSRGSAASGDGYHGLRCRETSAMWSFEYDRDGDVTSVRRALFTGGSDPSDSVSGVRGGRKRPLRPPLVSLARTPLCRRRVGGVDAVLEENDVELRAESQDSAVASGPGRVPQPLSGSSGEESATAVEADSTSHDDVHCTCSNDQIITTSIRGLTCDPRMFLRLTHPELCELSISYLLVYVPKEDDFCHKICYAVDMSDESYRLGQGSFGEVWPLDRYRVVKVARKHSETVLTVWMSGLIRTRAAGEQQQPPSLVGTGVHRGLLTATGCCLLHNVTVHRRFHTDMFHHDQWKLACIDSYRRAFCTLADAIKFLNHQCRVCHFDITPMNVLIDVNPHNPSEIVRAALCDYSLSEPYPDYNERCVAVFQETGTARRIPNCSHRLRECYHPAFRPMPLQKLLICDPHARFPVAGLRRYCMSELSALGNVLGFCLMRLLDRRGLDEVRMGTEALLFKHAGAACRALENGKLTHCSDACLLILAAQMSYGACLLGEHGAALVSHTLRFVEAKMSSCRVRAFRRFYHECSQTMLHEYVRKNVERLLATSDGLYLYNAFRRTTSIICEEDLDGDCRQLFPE
Description: as §1
Enzyme kinetic analysis was performed on the purified wild type and mutant UL97 protein species as above using increasing concentrations of ATP (2 μM to 20 μM). The amount of incorporated radiolabelled phosphate was plotted against the concentration of ATP in a Lineweaver Burke plot to determine the Km for ATP for each UL97 species. The effect of maribavir upon the rate of radiolabelled phosphate incorporation by wild type or mutant UL97 was determined by protein kinase assays at a fixed concentration of maribavir (0.5 μM) as above, or with increasing concentrations of maribavir (0.01 μM to 5.0 μM) to determine the IC50 of maribavir for each UL97 species. In order to determine the nature of the inhibition mediated by maribavir, plots of 1/v vs 1/ATP with increasing concentrations of maribavir were constructed. Competitive inhibition was evident if the family of lines cconverged on the y-axis at 1/Vmax. The change in slope caused by the addition of maribavir was used to calculate the Ki using standard enzyme kinetic equations viz.

Q: For `CC(C)Nc1nc2cc(Cl)c(Cl)cc2n1[C@H]1O[C@@H](CO)[C@H](O)[C@@H]1O` [maribavir, 5,6-dichloro-2-(isopropylamino)-1-beta-L-ribofuranosyl-1H-benzimidazole], which reduction in autophosphorylation ([1]; drug concentrations increased to 100 μM) is on record?
A: The reduction in autophosphorylation was “did not exhibit a reduction in autophosphorylation”.

Q: What about the effect on autophosphorylation ([1]; maribavir 0.5 μM) of the same molecule?
A: Its effect on autophosphorylation is “unaffected”.

Q: And the IC50 ([2]; A594T mutant)?
A: The IC50 was 31 nM.

Q: And the “IC50 fold lower than that observed for GCV” value [3]?
A: Its value is 4-to 10 fold.

Q: What about the “activity against resistant strains” value [4] of the same molecule?
A: Its value is “active”.

Q: And the “% autophosphorylation Plus Maribavir” value ([5]; maribavir 0.5 μM, normalised relative to wild type, mean and SD of triplicate)?
A: Its value is 4.5 ± 2.0%.

Q: What about the “nature of the inhibition” value ([5]; wild type UL97, 1/v vs 1/ATP with increasing maribavir) of the same molecule?
A: Its value is “competitive inhibitor of ATP”.

Q: What about the Ki ([5]; wild type UL97, competitive with ATP (2 μM to 20 μM), Lineweaver Burke plot) of the same molecule?
A: The Ki was 10 nM.

Q: What about the IC50 ([5]; wild type UL97, increasing concentrations of maribavir) of the same molecule?
A: The IC50 was 34 nM.

Q: Which results are given for `Nc1ncnc2c1ncn2[C@@H]1O[C@H](COP(=O)(O)OP(=O)(O)OP(=O)(O)O)[C@@H](O)[C@H]1O` [ATP]?
A: Km ([2]; A594T, read-out: Km for ATP): 40 ± 4.2 µM; Km ([5]; wild type UL97, ATP 2 μM to 20 μM, 5 minutes): 27 ± 2.2 µM

Reference: PMC3050433, “The effects of maribavir on the autophosphorylation of ganciclovir resistant mutants of the cytomegalovirus UL97 protein” (Herpesviridae, 2010)
